Measured values taken from patent US10993957B2 (NuCana plc, priority 2011, dated 2021).
Read-outs that look alike come from different tables or passages of the source.

Columns and labels:
[1] = test system: Cem/TK^−; assay: Cytostatic assay, thymidine kinase-deficient CEM/TK^− cells; format: cell-based, human; settings: Homo sapiens, CEM-TK(-); for CC50: read-out: CC50 Cem/TK^−; for IC50: read-out: IC50 Cem/TK^−
[2] = test system: HeLa/TK^−; assay: Cytostatic assay, HeLa/TK^− cells; format: cell-based; settings: Homo sapiens, HeLa; for CC50: read-out: CC50 HeLa/TK^−; for IC50: read-out: IC50 HeLa/TK^−
Excerpt: (§1) The cell lines employed were L1210/0 (a leukemia cell line), FM3A/0 (a breast cancer cell line), Cem/0 (an acute lymphoblastic leukemia cell line) and HeLa (a cervical cell line).

[3] = test system: HeLa; assay: Cytostatic assay, HeLa cells; format: cell-based; settings: Homo sapiens, HeLa; for CC50: read-out: CC50 HeLa; for IC50: read-out: IC50 HeLa
Excerpt: as §1

[4] = test system: L1210.Hyor; assay: Cytostatic assay, Mycoplasma hyorhinis-infected L1210 cells; settings: for % Retention: CC50 L1210 × 100 ÷ CC50 L1210/Hyor; for CC50 / IC50: Mus musculus; for CC50: L1210, read-out: CC50 L1210/Hyor; for IC50: L1210, read-out: IC50 L1210.Hyor; for IC50(L1210.Hyor)/IC50(L1210/0): Table 7
Excerpt: Murine leukaemia L1210/0 and human T-lymphocyte CEM/0 cells were obtained from the American Type Culture Collection (ATCC) (Rockville, Md.). Human glioblastoma U87 cells were kindly provided by Dr. E. Menue (Institut Pasteur, Paris, France). […] S. Eriksson (currently at Uppsala University, Uppsala, Sweden) and Prof A. Karlsson (Karolinska Institute, Stockholm, Sweden). […] All cells were maintained in Dulbecco's modified Eagle's medium (DMEM) (Invitrogen, Carlsbad, Calif.) with 10% foetal bovine serum (FBS) (Biochrom AG, Berlin, Germany), 10 mM Hepes and 1 mM Sodium Pyruvate (Invitrogen). Cells were grown at 37° C. in a humidified incubator with a gas phase of 5% CO2.
Monolayer cells (U87 and U87.Hyor) were seeded in 48-well microtiter plates (Nunc™, Roskilde, Denmark) at 10,000 cells/well. After 24 hours, an equal volume of fresh medium containing the test compounds was added. On day 5, cells were trypsinized and counted in a Coulter counter (Analis, Suarlée, Belgium). Suspension cells (L1210/0, L1210/TK^−, L1210.Hyor, CEM/0, CEM/TK^−) were seeded in 96-well microtiter plates (Nunc™) at 60,000 cells/well in the presence of a given amount of the test compounds. The cells were allowed to proliferate for 48 h (L1210) or 72 hours (CEM) and were then counted in a Coulter counter.
Samples were also assayed for their % retention of activity in mycoplasma infected cells.
The L1210/0 cell cultures were infected with the mycoplasma species M. hyorhinis (cells designated: L1210.Hyor).

[5] = test system: L1210/TK^−; assay: Cytostatic assay, thymidine kinase-deficient L1210/TK^− cells; format: cell-based, murine; settings: Mus musculus
[6] = test system: L1210/0; assay: Cytostatic assay, L1210/0 cells; format: cell-based, murine; settings: Mus musculus
Excerpt: as §1

[7] = test system: Cem/0; assay: Cytostatic assay, CEM/0 cells; format: cell-based, human; settings: Homo sapiens, CCRF-CEM; for CC50: read-out: CC50 Cem/0; for IC50: read-out: IC50 Cem/0
Excerpt: as §1

[8] = L1210, Table 1, read-out: CC50 L1210/TK^−
[9] = L1210, Table 6, read-out: IC50 L1210/TK^−
[10] = L1210/0, Table 1, read-out: CC50 L1210/0
[11] = L1210/0, Table 2, mycoplasma negative cells, read-out: CC50 L1210
[12] = L1210/0, Table 6, read-out: IC50 L1210/0
[13] = L1210/0, Table 7, read-out: IC50 L1210/0

Row | Structure (SMILES) | CC50 ([1]; Table 1) | IC50 ([1]; Table 6) | CC50 ([2]; Table 1) | IC50 ([2]; Table 6) | CC50 ([3]; Table 1) | IC50 ([3]; Table 6) | % Retention [4] | CC50 [4] | IC50 [4] | IC50(L1210.Hyor)/IC50(L1210/0) [4] | CC50 [5, 8] | IC50 [5, 9] | CC50 [6, 10] | CC50 [6, 11] | IC50 [6, 12] | IC50 [6, 13] | CC50 ([7]; Table 1) | IC50 ([7]; Table 6) | further results
1 | C[C@H](NP(=O)(OC[C@H]1O[C@@H](n2cc(F)c(=O)[nH]c2=O)CC1O)Oc1cccc2ccccc12)C(=O)OC1CCC1 (stereo partly drawn) [CPF 578, 5-Fluoro-2′-deoxyuridine-5′-O-[1-naphthyl-(cyclobutoxy-L-alaninyl)]phosphate] | 1500 ± 300 nM | 1500 ± 300 nM | 1500 ± 600 nM | 1500 ± 600 nM | 69 ± 3 nM | 69 ± 3 nM | 31% | 48 nM | 24 ± 0.14 nM | 2.2 | 88 ± 38 nM | 88 ± 38 nM | 14 ± 3 nM | 15 nM | 14 ± 3 nM | 11 ± 1.4 nM | 73 ± 18 nM | 73 ± 18 nM | 
2 | C[C@H](NP(=O)(OC[C@H]1O[C@@H](n2cc(F)c(=O)[nH]c2=O)CC1O)Oc1cccc2ccccc12)C(=O)OCC1CC1 (stereo partly drawn) [CPF 579, 5-Fluoro-2′-deoxyuridine-5′-O-[1-naphthyl-(cyclopropylmethanoxy-L-alaninyl)] phosphate] | 1100 ± 200 nM | 1100 ± 200 nM | 1400 ± 400 nM | 1400 ± 400 nM | 68 ± 1 nM | 68 ± 1 nM | 42% | 45 nM | 31 ± 6.4 nM | 2.2 | 120 ± 60 nM | 120 ± 60 nM | 17 ± 7 nM | 19 nM | 17 ± 7 nM | 14 ± 4.2 nM | 59 ± 17 nM | 59 ± 17 nM | 
3 | C[C@H](NP(=O)(OC[C@H]1O[C@@H](n2cc(F)c(=O)[nH]c2=O)CC1O)Oc1cccc2ccccc12)C(=O)OC1CCOCC1 (stereo partly drawn) [CPF 580, 5-Fluoro-2′-deoxyuridine-5′-O-[1-naphthyl-(tetrahydropyroxy-L-alaninyl)]phosphate] | 43000 ± 12000 nM | 43000 ± 12000 nM | 15000 ± 7000 nM | 15000 ± 7000 nM | 130 ± 40 nM | 130 ± 40 nM | 12% | 410 nM | 480 ± 110 nM | 11.7 | 27000 ± 6000 nM | 27000 ± 6000 nM | 38 ± 14 nM | 48 nM | 38 ± 14 nM | 41 ± 2.8 nM | 110 ± 20 nM | 110 ± 20 nM | 
4 | CCCCCOC(=O)[C@H](C)NP(=O)(OC[C@H]1O[C@@H](n2cc(F)c(=O)[nH]c2=O)CC1O)Oc1cccc2ccccc12 (stereo partly drawn) [CPF 581, 5-Fluoro-2′-deoxyuridine-5′-O-[1-naphthyl-(pentoxy-L-alaninyl)] phosphate] | 280 ± 40 nM | 280 ± 40 nM | 440 ± 350 nM | 440 ± 350 nM | 29 ± 23 nM | 29 ± 23 nM | 22% | 17 nM | 6 ± 1.4 nM | 2.9 | 130 ± 130 nM | 130 ± 130 nM | 2.8 ± 1 nM | 3.7 nM | 2.8 ± 1 nM | 2.1 ± 0.07 nM | 15 ± 6 nM | 15 ± 6 nM | 
5 | C[C@H](NP(=O)(OC[C@H]1O[C@@H](n2cc(F)c(=O)[nH]c2=O)CC1O)Oc1cccc2ccccc12)C(=O)OC1CCCC1 (stereo partly drawn) [CPF 582, 5-Fluoro-2′-deoxyuridine-5′-O-[1-naphthyl-(cyclopentoxy-L-alaninyl)]phosphate] | 920 ± 7 nM | 920 ± 7 nM | 2200 ± 1300 nM | 2200 ± 1300 nM | 71 ± 36 nM | 71 ± 36 nM | 83% | 42 nM | 24 ± 5 nM | 1.5 | 130 ± 20 nM | 130 ± 20 nM | 31 ± 10 nM | 35 nM | 31 ± 10 nM | 16 ± 0.7 nM | 35 ± 25 nM | 350 ± 25 nM | 
6 | O=C(OCc1ccccc1)C1CCCN1P(=O)(OC[C@H]1O[C@@H](n2cc(F)c(=O)[nH]c2=O)CC1O)Oc1ccccc1 (stereo partly drawn) [CPF 583, 5-Fluoro-2′-deoxyuridine-5′-O-[phenyl(benzoxy-L-prolinyl)] phosphate] |  |  |  |  |  |  | 3.3% | 11900 nM | 18000 ± 710 nM | 51 |  |  |  |  |  |  |  |  | CC50 [1]: 28000 ± 8000 nM; IC50 [1]: 28000 ± 8000 nM; CC50 [2]: 20000 ± 11000 nM; IC50 [2]: 20000 ± 11000 nM; CC50 [3]: 1100 ± 400 nM; IC50 [3]: 1100 ± 400 nM; CC50 ([5]; L1210, read-out: CC50 L1210/TK^−): 31000 ± 5000 nM; IC50 ([5]; L1210, read-out: IC50 L1210/TK^−): 31000 ± 5000 nM; CC50 ([6]; L1210/0, read-out: CC50 L1210): 387 nM; CC50 ([6]; L1210/0, read-out: CC50 L1210/0): 350 ± 70 nM; IC50 ([6]; L1210/0, read-out: IC50 L1210/0, Table 6): 350 ± 70 nM; IC50 ([6]; L1210/0, read-out: IC50 L1210/0, Table 7): 350 ± 22 nM; CC50 [7]: 980 ± 400 nM; IC50 [7]: 980 ± 400 nM
7 | C[C@H](NP(=O)(OC[C@H]1O[C@@H](n2cc(F)c(=O)[nH]c2=O)CC1O)Oc1cccc2ccccc12)C(=O)OCCC(C)(C)C (stereo partly drawn) [CPF 585, 5-Fluoro-2′-deoxyuridine-5′-O-[1-naphthyl(3,3-dimethyl-1-butoxy-L-alaninyl)] phosphate] | 190 ± 40 nM | 190 ± 40 nM | 1300 ± 900 nM | 1300 ± 900 nM | 78 ± 18 nM | 78 ± 18 nM | 41% | 51 nM | 32 ± 8.8 nM | 2.7 | 62 ± 9 nM | 62 ± 9 nM | 16 ± 6 nM | 21 nM | 16 ± 6 nM | 12 ± 1.8 nM | 53 ± 21 nM | 53 ± 21 nM | 
